Measured values published in ChEMBL document CHEMBL5584262, “Plakevulin A induces apoptosis and suppresses IL-6-induced STAT3 activation in HL60 cells” (Bioorg Med Chem Lett, 2024).
The source made the active and inactive calls. The rule behind the calls is not given here. *1 amine or outer side, *2 acyl side, *3 side chain or, on linkers, in order; H or OH if unused. Where a SMILES comes first, the peptide text is derived from it. Bridges are numbered along the chain shown (N, C = ends). Roman numbers before positions name the chains, in order. [ ]: non-standard residue; d: D form. Actinocin(9to1) = Cc1c2oc3c(C)ccc(C(=O)[*:1])c3nc-2c(C(=O)[*:2])c(N)c1=O; NMeV = CN[C@H](C(=O)O)C(C)C; Sar = CNCC(=O)O

Assays:
HL-60 [1] = experiment: Induction of apoptosis in human HL-60 cells assessed as DNA fragmentation at 1 uM treated for 24 hrs by agarose gel electrophoresis; format: functional, cell-based
HL-60 [2] = experiment: Induction of apoptosis in Z-VAD-fmk-treated human HL-60 cells assessed as DNA fragmentation at 1 uM treated for 24 hrs by agarose gel electrophoresis; format: functional, cell-based
HL-60 [3] = experiment: Downregulation of IL-6-induced STAT3 phosphorylation in human HL-60 cells pretreated for 24 hrs followed by IL-6 stimulation by Western blot analysis; format: functional, cell-based
[4] = molecular target: T1, Peroxisomal multifunctional enzyme type 2 (Homo sapiens) (UniProt P51659); experiment: Binding affinity to HSD17B4 in human HL-60 cell lysate by pull down assay; format: subcellular
T1 sequence (whole entry): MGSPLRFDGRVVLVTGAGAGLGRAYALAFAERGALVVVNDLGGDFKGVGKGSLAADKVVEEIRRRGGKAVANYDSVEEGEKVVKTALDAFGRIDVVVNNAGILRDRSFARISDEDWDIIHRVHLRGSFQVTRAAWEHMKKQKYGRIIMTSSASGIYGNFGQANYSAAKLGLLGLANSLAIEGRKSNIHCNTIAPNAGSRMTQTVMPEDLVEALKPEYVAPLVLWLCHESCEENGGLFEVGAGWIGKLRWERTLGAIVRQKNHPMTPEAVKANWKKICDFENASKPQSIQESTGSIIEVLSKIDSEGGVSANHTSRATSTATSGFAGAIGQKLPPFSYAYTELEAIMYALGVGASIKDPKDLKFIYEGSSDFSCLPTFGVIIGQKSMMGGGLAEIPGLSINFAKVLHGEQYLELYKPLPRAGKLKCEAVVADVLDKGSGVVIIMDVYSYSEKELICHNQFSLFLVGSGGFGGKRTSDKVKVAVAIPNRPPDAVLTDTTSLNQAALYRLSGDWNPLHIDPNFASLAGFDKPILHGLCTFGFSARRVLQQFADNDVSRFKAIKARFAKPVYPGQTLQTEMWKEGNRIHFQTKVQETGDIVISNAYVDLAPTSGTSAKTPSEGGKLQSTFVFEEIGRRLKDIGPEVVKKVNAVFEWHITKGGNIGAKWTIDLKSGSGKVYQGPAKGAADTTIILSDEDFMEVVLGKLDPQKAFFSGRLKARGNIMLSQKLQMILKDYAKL

DNA polymerase beta = DNA polymerase beta (Rattus norvegicus, UniProt P06766); experiment: Inhibition of rat DNA polymerase beta using DNA as substrate incubated for 60 mins in presence of […]
MRC5 = experiment: Cytotoxicity against human MRC5 cells assessed as inhibition of cell viability incubated for 24 hrs by MTT assay; format: functional, cell-based; settings: MRC5, 24 h
HeLa = experiment: Cytotoxicity against human HeLa cells assessed as inhibition of cell viability incubated for 24 hrs by MTT assay; format: functional, cell-based
HL-60 [5] = experiment: Cytotoxicity against human HL-60 cells assessed as inhibition of cell viability incubated for 24 hrs by MTT assay; format: functional, cell-based; settings: HL-60, 24 h
MC3T3-E1 = experiment: Cytotoxicity against mouse MC3T3-E1 cells assessed as inhibition of cell viability incubated for 24 hrs by MTT assay; format: functional, cell-based; settings: MC3T3-E1, 24 h
HL-60 [6] = experiment: Induction of apoptosis in Z-VAD-fmk-treated human HL-60 cells assessed as DNA fragmentation at 5 uM treated for 24 hrs by agarose gel electrophoresis; format: functional, cell-based
[7] = Inhibition of calf DNA polymerase alpha using DNA as substrate incubated for 60 mins in presence of […]; design: species or system Bos taurus
HL-60 [8] = experiment: Cytotoxicity against human HL-60 cells assessed as inhibition of cell viability incubated for 48 hrs by WST-8 assay; format: functional, cell-based; settings: HL-60, 48 h
HL-60 [9] = experiment: Induction of apoptosis in human HL-60 cells assessed as DNA fragmentation at 5 uM treated for 24 hrs by agarose gel electrophoresis; format: functional, cell-based
HL-60 [10] = experiment: Induction of apoptosis in Z-VAD-fmk-treated human HL-60 cells assessed as inhibition of caspase-3 activation at 5 uM treated for 24 hrs by Ac-DEVD-MCA substrate based analysis; format: functional, cell-based
[11] = molecular target: T1, Peroxisomal multifunctional enzyme type 2 (Homo sapiens); experiment: Binding affinity to HSD17B4 in human HL-60 cell lysate by Western blot analysis; format: subcellular

## Cc1c2oc3c(C)ccc(C(=O)N[C@@H]4C(=O)N[C@H](C(C)C)C(=O)N5CCC[C@H]5C(=O)N(C)CC(=O)N(C)[C@@H](C(C)C)C(=O)O[C@@H]4C)c3nc-2c(C(=O)N[C@@H]2C(=O)N[C@H](C(C)C)C(=O)N3CCC[C@H]3C(=O)N(C)CC(=O)N(C)[C@@H](C(C)C)C(=O)O[C@@H]2C)c(N)c1=O (I: T[dV]P[Sar][NMeV] / II: T[dV]P[Sar][NMeV]; ester I:1-I:C, II:1-II:C; linker I:N-II:N via Actinocin(9to1))
HL-60 [1]
  Activity: Active
HL-60 [2]
  Activity: inactive

## CO/C=C(/C(=O)OC)c1ccccc1COc1cc(C(F)(F)F)nc(OC(C)C)n1
HL-60 [3]
  Activity: Dose-Dependent Effect

## O=C(O)CCCCCNC(=O)CCCC[C@@H]1SC[C@@H]2NC(=O)N[C@@H]21
[4]
  Activity: inactive

## CCCCCCCCCCCCCCCC[C@]1(O)C=C[C@H](O)[C@H]1C(=O)OC [PLAKEVULIN A]
DNA polymerase beta
  IC50: 189 µM
MRC5
  IC50: > 15 µM
HeLa
  IC50: 11.5 µM
HL-60 [5]
  IC50: 2.02 µM
MC3T3-E1
  IC50: 12.4 µM
HL-60 [6]
  Activity: inactive
[7]
  IC50: 137 µM
HL-60 [3]
  Activity: Dose-Dependent Effect
HL-60 [8]
  IC50: 2.63 µM
HL-60 [9]
  Activity: Active
HL-60 [10]
  inhibition: Active

## CCCCCCCCCCCCCCCC[C@]1(O)C=C[C@H](OC(=O)CCCCCNC(=O)CCCC[C@@H]2SC[C@@H]3NC(=O)N[C@@H]32)[C@H]1C(=O)OC
[11]
  Activity: Active
[4]
  Activity: Active
HL-60 [8]
  IC50: 5.76 µM
